Where “and” joins values, the source holds several entries; their conditions need not be identical. Equal entries are not always repeated. ± gives the uncertainty stated by the source.
Test: xn = mol fraction of the nth substance listed
Conditions: 100 kPa

CCOS(=O)(=O)[O-].CC[n+]1ccn(C)c1 + OCCO
Conditions | electrical conductivity | viscosity
293.15 K, x1 = 0.2999 | – | 20.52 ± 0.2 mPa·s
293.15 K, x2 = 0.406 | – | 41.6 ± 0.9 mPa·s
298.15 K, x1 = 0.001 | 0.0067 S/m and 0.0121 S/m | 16 ± 0.3 mPa·s and 16.9 ± 0.4 mPa·s
298.15 K, x2 = 0 | – | 95.9 ± 2.1 mPa·s
298.15 K, x2 = 0.597 | 0.95 ± 0.04 S/m | 21.7 ± 0.5 mPa·s
298.15 K, x2 = 0.851 | 0.72 ± 0.03 S/m | 14.8 ± 0.3 mPa·s
303.15 K, x1 = 0.001 | – | 13.8 ± 0.3 mPa·s
303.15 K, x1 = 0.5992 | – | 28.04 ± 0.46 mPa·s
303.15 K, x1 = 0.6994 | – | 37.14 ± 0.69 mPa·s
303.15 K, x2 = 0.792 | – | 13 ± 0.3 mPa·s
308.15 K, x1 = 0.1982 | – | 10.85 ± 0.08 mPa·s
308.15 K, x1 = 0.2999 | – | 12.62 ± 0.12 mPa·s
313.15 K, x1 = 0.001 | 0.0115 S/m and 0.0206 S/m | 9.15 ± 0.19 mPa·s and 9.54 ± 0.2 mPa·s
313.15 K, x1 = 0.003 | 0.0362 ± 0.0015 S/m | 9.48 ± 0.2 mPa·s
313.15 K, x1 = 0.008 | 0.097 ± 0.004 S/m | 9.49 ± 0.2 mPa·s
313.15 K, x1 = 0.1982 | – | 9.37 ± 0.07 mPa·s
313.15 K, x2 = 0.406 | 1.27 ± 0.05 S/m | 20.6 ± 0.5 mPa·s
313.15 K, x2 = 0.938 | 0.59 ± 0.02 S/m | 9.05 ± 0.19 mPa·s
318.15 K, x1 = 0.1982 | – | 8.15 ± 0.06 mPa·s
318.15 K, x1 = 0.4002 | – | 11.61 ± 0.14 mPa·s
318.15 K, x1 = 0.8001 | – | 27.31 ± 0.57 mPa·s
318.15 K, x1 = 0.8993 | – | 35.33 ± 0.81 mPa·s
323.15 K, x1 = 0.1003 | – | 6.66 ± 0.04 mPa·s
333.15 K, x1 = 0.1003 | – | 5.1 ± 0.03 mPa·s
333.15 K, x1 = 0.1982 | – | 5.59 ± 0.04 mPa·s
333.15 K, x1 = 0.5005 | – | 9.85 ± 0.14 mPa·s
338.15 K, x1 = 0.5992 | – | 10.45 ± 0.17 mPa·s
343.15 K, x1 = 0.5005 | – | 7.87 ± 0.11 mPa·s
343.15 K, x1 = 0.5992 | – | 9.34 ± 0.15 mPa·s
343.15 K, x1 = 0.8001 | – | 13.58 ± 0.28 mPa·s

Source: the CheMixHub ionic liquid set
